Experimental data: paper PMC7248394 (Frontiers in Chemistry, 2020)
Entries after “also recorded” stand apart in the source; their conditions may differ. Residues, ends and D or L forms follow the SMILES beside them. *: point of attachment. 5FAM = O=C1OC2(c3ccc(O)cc3Oc3cc(O)ccc32)c2ccc(C(=O)*)cc21

Tests used:
trypsin = assay: 7 μL of 8 μM trypsin added to peptide in 360 μL of HEPES 20 mM pH = 7.5; conditions: 37 °C, up to about 30 h
[1] = target: T1, IN1−288 F185K/C250S (HIV-1 integrase) (Human immunodeficiency virus type 1 group M subtype B, UniProt P12497, C1427S/F1332K); assay: Fluorescence anisotropy binding of fluorescein-labeled IN181−188 peptides to IN; conditions: for Hill coefficient (n): fluorescence anisotropy, IN titrated into 100 nM fluorescein-labeled peptide, 10°C, ionic strength 1 M (NaCl), fit to Hill equation
T1 construct: we first expressed and purified IN1−288 F185K/C250S as previously described; made in house
Protocol: To test the activity of the cyclic peptide-peptoid hybrids, we first expressed and purified IN1−288 F185K/C250S as previously described (Gabizon et al., [2013]). The double mutant protein was used since it has similar activity as the wild-type but higher solubility (Jenkins et al., [1996]). […] The Hill coefficient for all the cyclic peptides was approximately 4, indicating cooperative binding of the peptides to tetrameric IN.
IN was titrated into a solution of 100 nM fluorescein labeled (Fl) IN181−188 cyclic peptides and into linear IN181−188, which served as a control. Anisotropy measurements were performed generally as described (Friedler et al., [2002]) at 10°C with ionic strength of 1 M (adjusted by NaCl) and the binding curves were fit to the Hill equation (Figure 8, Table 1).

Compound	fragment found (trypsin)	Kd [1]	Hill coefficient (n) [1]
H2N-W-G(N-propargyl)-F-I-H-N-F-K-R-K-G(N-(CH2)3-N3)-NH2	G(N-propargyl)FIHNFKR, major; also recorded: G(N-propargyl)FIHNFK	–	–
H2N-W-G(N-alkyl)-F-I-H-N-F-K-R-K-G(N-alkyl)-NH2, the two N-alkyl groups joined by a triazole bridge (n=3, R=H)	digested C-2 (C-2 + 18 Da, addition of water)	–	–
CC[C@H](C)[C@@H]1NC(=O)[C@H](Cc2ccccc2)NC(=O)CN(C(=O)[C@H](Cc2c[nH]c3ccccc23)NC(=O)c2ccc3c(c2)C(=O)OC32c3ccc(O)cc3Oc3cc(O)ccc32)Cc2cn(nn2)CCCN(CC(N)=O)C(=O)[C@H](CCCCN)NC(=O)[C@H](CCCNC(=N)N)NC(=O)[C@H](CCCCN)NC(=O)[C@H](Cc2ccccc2)NC(=O)[C@H](CC(N)=O)NC(=O)[C@H](Cc2c[nH]cn2)NC1=O [Fl-C-2]	–	9 ± 0.2 µM	3.8 ± 0.3
CC[C@H](C)[C@H](NC(=O)[C@H](Cc1ccccc1)NC(=O)CNC(=O)[C@H](Cc1c[nH]c2ccccc12)NC(=O)c1ccc2c(c1)C(=O)OC21c2ccc(O)cc2Oc2cc(O)ccc21)C(=O)N[C@@H](Cc1c[nH]cn1)C(=O)N[C@@H](CC(N)=O)C(=O)N[C@@H](Cc1ccccc1)C(=O)N[C@@H](CCCCN)C(=O)N[C@@H](CCCNC(=N)N)C(=O)N[C@@H](CCCCN)C(=O)NCC(N)=O [Fl-WT IN181−188, reference compound] (5FAM-WGFIHNFKRKG-NH2; N-terminus assumed)	–	7.6 ± 0.2 µM	3.6 ± 0.4
CC[C@H](C)[C@@H]1NC(=O)[C@H](Cc2ccccc2)NC(=O)CN(C(=O)[C@H](Cc2c[nH]c3ccccc23)NC(=O)c2ccc3c(c2)C(=O)OC32c3ccc(O)cc3Oc3cc(O)ccc32)CCCn2cc(nn2)CN(CC(N)=O)C(=O)[C@H](CCCCN)NC(=O)[C@H](CCCNC(=N)N)NC(=O)[C@H](CCCCN)NC(=O)[C@H](Cc2ccccc2)NC(=O)[C@H](CC(N)=O)NC(=O)[C@H](Cc2c[nH]cn2)NC1=O [Fl-C-1]	–	8.1 ± 0.2 µM	3.8 ± 0.4
CC[C@H](C)[C@@H]1NC(=O)[C@H](Cc2ccccc2)NC(=O)CN(C(=O)[C@H](Cc2c[nH]c3ccccc23)NC(=O)c2ccc3c(c2)C(=O)OC32c3ccc(O)cc3Oc3cc(O)ccc32)CCn2cc(nn2)CN(CC(N)=O)C(=O)[C@H](CCCCN)NC(=O)[C@H](CCCNC(=N)N)NC(=O)[C@H](CCCCN)NC(=O)[C@H](Cc2ccccc2)NC(=O)[C@H](CC(N)=O)NC(=O)[C@H](Cc2c[nH]cn2)NC1=O [Fl-C-3]	–	7.7 ± 0.5 µM	2.8 ± 0.5
CC[C@H](C)[C@@H]1NC(=O)[C@H](Cc2ccccc2)NC(=O)CN(C(=O)[C@H](Cc2c[nH]c3ccccc23)NC(=O)c2ccc3c(c2)C(=O)OC32c3ccc(O)cc3Oc3cc(O)ccc32)Cc2cn(nn2)CCN(CC(N)=O)C(=O)[C@H](CCCCN)NC(=O)[C@H](CCCNC(=N)N)NC(=O)[C@H](CCCCN)NC(=O)[C@H](Cc2ccccc2)NC(=O)[C@H](CC(N)=O)NC(=O)[C@H](Cc2c[nH]cn2)NC1=O [Fl-C-4]	–	7 ± 0.2 µM	2.5 ± 0.2
